{"source": "patent US20030130280A1", "about": "“Treatment of acute myeloid leukemia with indolinone compounds” (SUGEN, Inc., priority 2001, published 2003)", "key": {"[1]": {"test_system": "RS411 (wild type FLT-3)", "test": "Cell proliferation, RS411", "format": "cell-based"}, "[2]": {"test_system": "OC1-AML5 cell line", "test": "Cell viability (trypan blue) and proliferation (alamar blue) with FLT-3 ligand", "format": "cell-based", "conditions": "trypan blue and alamar blue assays", "excerpt": "The first cell line used was the OC1-AML5 cell line known to express the FLT-3 tyrosine kinase. This cell line was maintained in conventional medium containing cytokines to maintain growth in liquid culture. This cell line provides a model to assess activation and inhibition of FLT-3 signaling by FLT-3 ligand and compounds which may inhibit FLT-3. The biological consequences of FLT-3 can be assessed with this cell line.\nThe OC1-AML5 cell line which express FLT-3-wild type was obtained (Pharmacia)."}, "[3]": {"test_system": "OC1-AML5", "test": "VEGF production, OC1-AML5 cells", "format": "cell-based", "conditions": "for VEGF %: 0 uM = 100"}, "[4]": {"test_system": "VEGF", "test": "Plasma VEGF by ELISA", "format": "in vivo", "conditions": "plasma of NOD-SCID mice", "method": "(§1) At experimental endpoints, mice were anesthetized, followed by terminal blood collection via intracardiac puncture. Bone marrow cell suspensions were prepared by flushing mouse femurs with cold, sterile PBS. For all studies, a paired Student's t test was used to assess differences between treated and control groups (P<0.05 was considered significant).\nPlasma from the NOD-SCID mice described above was analyzed by ELISA for VEGF protein levels using a commercially available kit."}, "[5]": {"test_system": "FLT-3", "test": "Phase I single dose study, FLT-3 phosphorylation in whole blood", "format": "in vivo, human", "conditions": "AML patients, reached in 3 pts at each dose level >200 mg, WT and mutant FLT-3 patients", "method": "Immunoprecipitation and Western Blot (IP/W) analysis: Cells were lysed in lysis buffer (20 mM Tris, pH 7.5; 137 mM NaCl; 10% glycerol; 1% NP-40; 0.1% SDS; 2 mM EDTA) containing protease and phosphatase inhibitors (50 mM sodium fluoride, 1 mM sodium orthovanadate, 2 mM Pefabloc, […], […], […], 4 mM leupeptin, and 4 mM pepstatin A). Equivalent amounts of protein were separated by SDS-PAGE, then transferred to nitrocellulose membranes. For analysis of FLT3 phosphorylation, equivalent amounts of protein from each sample were immunoprecipitated overnight at 4*C. with an agarose-conjugated anti-FLT3 antibody (Santa Cruz Biotechnology, Santa Cruz, Calif.). Immune complexes were washed (150 mM NaCl, 1.5 mM MgCl2, 50 mM HEPES, pH 7.5, 10% glycerol, 0.1% Triton X-100, and 1 mM EGTA) and following SDS-PAGE, proteins were transferred to nitrocellulose membranes. Membranes were probed with an anti-phosphotyrosine antibody (Upstate, Lake Placid, N.Y. or Transduction Laboratories, Lexington, Ky.) and then stripped with Restore Western Blot Stripping Buffer (Pierce, Rockford, Ill.). Membranes were reprobed with an anti-FLT3 antibody (Santa Cruz Biotechnology). Stat5 antibodies for immunprecipitation and Western blot analysis were from Upstate Biotechnology and Transduction labs respectively."}, "[6]": {"test": "Bone marrow model, survival", "format": "in vivo, NOD-SCID mice", "conditions": "orally once daily", "method": "as §1, with “NOD-SCID mice were pretreated with cyclophosphamide (Neosar, Pharmacia, Kalamazoo, Mich.) by intraperitoneal injection of 150 mg/kg/day for 2 days ^(46), followed by 24 hours of rest prior to intravenous (i.v.) injection of 5×10^6 cells via the tail vein. At” for “At”"}, "[7]": {"test_system": "MV411 tumors", "test": "Subcutaneous MV411 tumor model, tumor growth", "format": "in vivo, athymic mice", "conditions": "within 4 days of treatment", "method": "(§2) Tumor cells, MV411 in the example shown were implanted subcutaneously in the hindflank of athymic mice. […] For measurement of efficacy, tumor growth was measured at various subsequent time points using vernier calipers. For analysis of phosphorylation, tumors were resected following dosing (4 hours here), pulverized in liquid nitrogen and homogenized in lysis buffer. FLT-3 and Stat5 phosphorylation were measured by immunoprecipitation and Western blot analysis.\n(§3) Athymic mice were injected subcutaneously with MV411 and RS411 cells to cause tumor formation."}, "[8]": {"test_system": "FLT-3-ITD", "test": "FLT-3 phosphorylation in resected xenograft tumors", "format": "in vivo, athymic mice", "conditions": "4 hour treatment", "method": "as §2, §3"}, "[9]": {"test_system": "erk½", "test": "erk½ phosphorylation in OC1-AML5 cells", "format": "cell-based", "excerpt": "Activation of downstream pathways by FLT-3 ligand was also investigated, specifically for Stat5 and erk. Stat5 and Erk are downstream mediators of RTK signaling, and may provide readouts for FLT-3 signaling. Stat 5 is a transcription factor which regulates many genes involves in cell survival and proliferation. Erk½ are kinases on the Raf signaling pathway."}, "[10]": {"test_system": "MV4; 11", "test": "VEGF production, MV4;11 cells", "format": "cell-based", "conditions": "for VEGF %: 0 uM = 100"}, "[11]": {"test_system": "MV411 (ITD mutant FLT-3)", "test": "Cell proliferation, MV411", "format": "cell-based"}, "[12]": {"test_system": "MV411 (ITD mutant FLT-3)", "test": "Apoptosis by PARP cleavage and caspase 3 staining, ITD-mutant cells", "format": "cell-based", "conditions": "PARP cleavage, caspase 3 staining", "method": "Apoptosis was measured by analysis of PARP cleavage and by caspase 3 staining."}}, "note": "“Also recorded” adds a separate entry of the source."}
{"smiles": "CCN(CC)CCNC(=O)c1c(C)[nH]c(/C=C2\\C(=O)Nc3ccc(F)cc32)c1C", "note": "[Compound 1, 5-(5-Fluoro-2-oxo-1,2-dihydro-indol-3-ylidenemethyl)-2,4-dimethyl-1H-pyrrole-3-carboxylic acid(2-diethylamino-ethyl)-amide]", "values": [{"measurement": "expansion of RS411", "setting": "[1]", "value": "inhibited expansion"}, {"measurement": "inhibition of FLT-3 ligand increased cell numbers", "setting": "[2]", "value": "some inhibition"}, {"measurement": "VEGF mean sd", "setting": "[3]; CMPD 1 0.00 uM", "value": 92.5}, {"measurement": "VEGF %", "setting": "[3]; CMPD 1 0.00 uM", "value": 91.8, "unit": "%"}, {"measurement": "VEGF mean sd", "setting": "[3]; CMPD 1 0.01 uM", "value": 35.6}, {"measurement": "VEGF %", "setting": "[3]; CMPD 1 0.01 uM", "value": 35.3, "unit": "%"}, {"measurement": "VEGF mean sd", "setting": "[3]; CMPD 1 0.1 uM", "value": 33.6}, {"measurement": "VEGF %", "setting": "[3]; CMPD 1 0.1 uM", "value": 33.3, "unit": "%"}, {"measurement": "VEGF mean sd", "setting": "[3]; CMPD 1 1 uM", "value": 28.3}, {"measurement": "VEGF %", "setting": "[3]; CMPD 1 1 uM", "value": 28.0, "unit": "%"}, {"measurement": "VEGF %", "setting": "[3]; CMPD 1 10 uM", "value": 15.5, "unit": "%"}, {"measurement": "VEGF in plasma (mean)", "setting": "[4]", "value": 49, "unit": "pg/mL"}, {"measurement": "inhibition of FLT-3 phosphorylation", "setting": "[5]", "value": "> 50", "unit": "%"}, {"measurement": "dose with highest efficacy on survival", "setting": "[6]", "value": 20, "unit": "mg/kg/day"}, {"measurement": "survival", "setting": "[6]; range of doses", "value": "prolonged survival in a dose-dependent manner"}, {"measurement": "tumor size", "setting": "[7]", "value": "dramatically reduced tumor size to almost undetectable"}, {"measurement": "activated FLT-3 in tumors", "setting": "[8]", "value": "completely inhibited; also recorded: inhibits"}, {"measurement": "IL-3 dependent erk activation", "setting": "[9]; IL-3 dependent", "value": "not inhibited"}, {"measurement": "Phosphorylation of erk½", "setting": "[9]; activated by FLT-3 ligand", "value": "inhibited"}, {"measurement": "VEGF mean sd", "setting": "[10]; CMPD 1 0.00 uM", "value": 287.8}, {"measurement": "VEGF %", "setting": "[10]; CMPD 1 0.00 uM", "value": 83.0, "unit": "%"}, {"measurement": "VEGF mean sd", "setting": "[10]; CMPD 1 0.01 uM", "value": 65.4}, {"measurement": "VEGF %", "setting": "[10]; CMPD 1 0.01 uM", "value": 18.9, "unit": "%"}, {"measurement": "VEGF mean sd", "setting": "[10]; CMPD 1 0.1 uM", "value": 31.2}, {"measurement": "VEGF %", "setting": "[10]; CMPD 1 0.1 uM", "value": 9.0, "unit": "%"}, {"measurement": "VEGF mean sd", "setting": "[10]; CMPD 1 1 uM", "value": 30.5}, {"measurement": "VEGF %", "setting": "[10]; CMPD 1 1 uM", "value": 8.8, "unit": "%"}, {"measurement": "VEGF mean sd", "setting": "[10]; CMPD 1 10 uM", "value": 23.3}, {"measurement": "VEGF %", "setting": "[10]; CMPD 1 10 uM", "value": 6.7, "unit": "%"}, {"measurement": "expansion of MV411", "setting": "[11]", "value": "inhibited expansion"}, {"measurement": "apoptosis", "setting": "[12]", "value": "causes apoptosis"}]}
